Literature values, collected in US20230113836A1, “NEW CONJUGATES OF PEPTIDES AND POLYSACCHARIDE” (ENLITISA (SHANGHAI) PHARMACEUTICAL CO., LTD., priority 2019, published 2023).

Tested on: Drosophila model organism
Details: Foureman et al., 1994

In the case of `C(CCOCC1CO1)COCC1CO1` (stereo not shown) [BDDE, 1,4-butanediol diglycidyl ether], the Mutagenicity is given as “mutagenic”.
